How the values were obtained:
immature cardiomyocytes = conditions: T3 treatment of immature cardiomyocytes; cited from earlier work
[1] = system: iPSC-derived cardiomyocytes; assay: Inotropic compound screening on functionally matured iPSC-derived cardiomyocytes, xCELLigence RTCA CardioECR (Example VI, FIG. 7, FIG. 8); format: cell-based; conditions: for beating rate: FIG. 7B
Method: Cell monolayer preparation. The iPSC-derived cardiomyocytes were seeded at the optimal seeding density in the wells of E-plate CardioECR 48, which were pre-coated with substrate. The attachment, growth and beating activity of the cells were recorded after cell seeding in real-time using xCELLigence RTCA CardioECR station, which was placed in a 37° C. tissue culture incubator. Medium change was performed every other day.
Induction of functionally mature iPSC-derived cardiomyocytes. The electrical pacing was initiated and applied to the cell monolayer after a stable and robust beating activity of iPSC-derived cardiomyocytes is observed using xCELLigence RTCA cardioECR system. The iPSC-derived cardiomyocytes were then electrically paced at 1 Hz, 1.5 Hz and 2 Hz for 1 week respectively using xCELLigence RTCA CardioECR system. The pulse intensity and pulse duration was optimized before each pacing frequency and continuously applied to the cells. The cells were confirmed to beat at the same frequency as the pacing frequency under the pacing condition. Medium change was performed every day during chronic pacing procedure.
Inotropic compound screening. After completion of functional maturation of cardiomyocytes over the course of ramping up pacing process for 3 weeks, the inotropic compound screening was conducted. The old media was replaced with 90 μL of fresh pre-warmed media the night before compound addition. The cells will were continuously paced for an additional 12 hours at 2 Hz using the CardioECR system. The electrical pacing was terminated 6 hours prior to compound application to ensure that cells generated stable beating rate and beating amplitude for treatment. The cell beating activity is monitored and recorded in real-time on the CardioECR system.
The effective concentration ranges for the test substances were determined. The compound solution is prepared as follows. The compounds are dissolved in the appropriate solvent. If DMSO is used as the solvent, dissolve the compound in a high stock concentration if possible (ideally more than 1000-fold of the highest test concentration) and store at −20° C. Serial dilutions of compounds are prepared 1000× concentrated in appropriate solvent (DMSO or H2O). Diluted compounds are transferred to the wells of a V-bottom microtiter plate for further dilution in culture medium (10× concentrated).
The baseline of beating activity is recorded for 20 seconds every 5 minutes up to 30 minutes immediately prior to compound addition on the CardioECR system. 10 μL of 10× compound solution is added to the wells of CardioECR plate using multichannel pipette. The cell response to the compound is recorded for 20 seconds every 2 minutes immediately after compound exposure using CardioECR system. The cell beating activity, including beating rate and beating amplitude, is evaluated at 30 minutes post compound addition.

iPSC cardiomyocytes = assay: Inotropic compound test on iPSC cardiomyocytes, xCELLigence RTCA CardioECR (Example V); format: cell-based; conditions: 30 minutes post compound addition; for beating rate: FIG. 6B; for beating amplitude (positive inotropic effect): FIG. 6A
Method: The functional maturation of iPSC cardiomyocytes from Example III was tested using inotropic compounds. Results are shown in FIG. 6A-B. In particular, iPSC cardiomyocytes were seeded in the wells of the CardioECR Plate (E-Plate CardioECR 48) for approximately 7 days until they formed a synchronous, stable beating monolayer. The cells were then electrically paced at 1 Hz, 1.5 Hz and 2 Hz for 1 week respectively (week 1: 1 Hz pacing; week 2: 1.5 Hz pacing; week 3: 2 Hz pacing). After pausing the 2 Hz pacing, cell media was replaced with 90 μL of fresh pre-warmed media the night before compound addition. The cells were then continuously paced for additional 8 hours at 2 Hz. The electrical pacing was terminated 5 hours prior to compound addition to ensure that cells would generate a stable beating rate and beating amplitude for treatment. The baseline beating activity was recorded for 20 seconds every 5 minutes up to 30 minutes immediately prior to compound addition. 10 μL of 10× compound solution was then added to the wells of CardioECR plate using a multichannel pipette. The cell response to the compound was recorded for 20 seconds every 2 minutes immediately after compound exposure using CardioECR system. The cell beating activity, including beating rate and beating amplitude, was evaluated at 30 minutes post compound addition.

[2] = FIG. 8 panel, functional matured iCell cardiomyocytes after pacing, representative concentrations
[3] = spontaneous beating cardiomyocytes

For `N[C@@H](Cc1cc(I)c(Oc2ccc(O)c(I)c2)c(I)c1)C(=O)O` [T3, Tri-iodo-L-thryonine], the calcium handling properties (immature cardiomyocytes) is given as “enhanced”, the cardiomyocyte size (immature cardiomyocytes) is given as “increased” and the contractile force generation (immature cardiomyocytes) is given as “increased”. The “maximal mitochondrial respiration capacity” value (immature cardiomyocytes) was “increased”, the proliferation (immature cardiomyocytes) was “decreased” and the sarcomere length (immature cardiomyocytes) was “increased”.
With `COC(=O)C1=C(C)NC(C)=C([N+](=O)[O-])C1c1ccccc1C(F)(F)F` (stereo not shown) [bayK] the inotropic effect [1, 2] was “positive inotropic effect”.
With `C[C@H]1O[C@@H](O[C@H]2[C@@H](O)C[C@H](O[C@H]3[C@@H](O)C[C@H](O[C@H]4CC[C@@]5(C)[C@H](CC[C@@H]6[C@@H]5C[C@@H](O)[C@]5(C)[C@@H](C7=CC(=O)OC7)CC[C@]65O)C4)O[C@@H]3C)O[C@@H]2C)C[C@H](O)[C@@H]1O` [digoxin] the inotropic effect [1, 2] was “positive inotropic effect”.
In the case of `CC(C)NCC(O)c1ccc(O)c(O)c1` (stereo not shown) [isoproterenol], the chronotropic effect [1, 2] is reported as “positive chronotropic effect”, the beating rate (iPSC cardiomyocytes; chronically paced cardiomyocytes (1, 1.5, 2 Hz, 1 week each)) is reported as “increase” and the “beating amplitude (positive inotropic effect)” value (iPSC cardiomyocytes; chronically paced cardiomyocytes) is reported as “increase”. The “beating amplitude (positive inotropic effect)” value (iPSC cardiomyocytes; [3]) was “only observed in paced cells” and the beating rate (iPSC cardiomyocytes; [3]) was “increase”.
For `Cc1[nH]c(=O)c(C#N)cc1-c1ccncc1` [milrinone], the beating rate ([1]; chronically paced cardiomyocytes, 30 minutes post compound addition) was “slightly increased”, the beating amplitude ([1]; electrically paced cardiomyocytes, 30 minutes post compound addition, FIG. 7A) was “significantly increased” and the beating rate ([1]; spontaneous beating cardiomyocytes, 30 minutes post compound addition) was “slightly increased”.

Reference: patent publication US11746328B2, “Methods and systems for functional maturation of iPSC and ESC derived cardiomyocytes” (Agilent Technologies, Inc., priority 2017, dated 2023)
